Measurements taken from patent US20260285872A1, “COMPOUNDS AND METHODS FOR DEGRADING GSPT1” (priority 2023, published 2026).
pIC50: −log10 of the molar value. Where two headings read alike, the source gives them in different places.

How the values were obtained:
GSPT1 = GSPT1 (Homo sapiens, UniProt P15170+Q96SW2); format: cell-based
Procedure: GSPT1_HiBIT_HEK293 cells were culture in DMEM medium with 10% FBS under standard tissue culture conditions. […] GSPT1 level was determined in along with the Nano-Glo HiBiT Lytic Detection system [Promega N3050] with final concentration of 1×. The luminescence was normalized to that of DMSO-treated samples. DC50 values were obtained using three-parameter non-linear regressions using Prism (GraphPad).

NCI-H1155 cells = assay: NSCLC cell viability, CellTiter-Glo, NCI-H1155 cells; format: cell-based; settings: Homo sapiens, read-out: Cell viability classification (NCI-H1155)
[1] = read-out: GSPT1 degradation classification; DC50, GSPT1_HiBIT_HEK293 cells, 16 hours, Nano-Glo HiBiT Lytic Detection
[2] = NCI-H1155 cells, CellTiter-Glo, 72 hours of treatment
[3] = DC50, GSPT1_HiBIT_HEK293 cells, 16 hours, Nano-Glo HiBiT Lytic Detection; read-out: GSPT1 degradation classification

GSPT1, sequence (P15170 whole entry): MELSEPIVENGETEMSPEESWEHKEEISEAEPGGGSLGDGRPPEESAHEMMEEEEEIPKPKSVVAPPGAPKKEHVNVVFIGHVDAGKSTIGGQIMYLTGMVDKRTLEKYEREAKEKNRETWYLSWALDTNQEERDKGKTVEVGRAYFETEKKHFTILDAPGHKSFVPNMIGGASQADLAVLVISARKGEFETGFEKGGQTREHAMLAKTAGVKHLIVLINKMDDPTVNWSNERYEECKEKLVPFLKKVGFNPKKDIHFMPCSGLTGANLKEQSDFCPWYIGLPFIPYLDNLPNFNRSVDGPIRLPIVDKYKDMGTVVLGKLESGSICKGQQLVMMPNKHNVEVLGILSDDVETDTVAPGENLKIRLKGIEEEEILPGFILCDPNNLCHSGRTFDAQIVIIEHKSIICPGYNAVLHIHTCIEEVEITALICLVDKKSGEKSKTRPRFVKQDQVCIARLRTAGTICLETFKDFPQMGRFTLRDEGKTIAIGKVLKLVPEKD
GSPT1, sequence (Q96SW2 whole entry): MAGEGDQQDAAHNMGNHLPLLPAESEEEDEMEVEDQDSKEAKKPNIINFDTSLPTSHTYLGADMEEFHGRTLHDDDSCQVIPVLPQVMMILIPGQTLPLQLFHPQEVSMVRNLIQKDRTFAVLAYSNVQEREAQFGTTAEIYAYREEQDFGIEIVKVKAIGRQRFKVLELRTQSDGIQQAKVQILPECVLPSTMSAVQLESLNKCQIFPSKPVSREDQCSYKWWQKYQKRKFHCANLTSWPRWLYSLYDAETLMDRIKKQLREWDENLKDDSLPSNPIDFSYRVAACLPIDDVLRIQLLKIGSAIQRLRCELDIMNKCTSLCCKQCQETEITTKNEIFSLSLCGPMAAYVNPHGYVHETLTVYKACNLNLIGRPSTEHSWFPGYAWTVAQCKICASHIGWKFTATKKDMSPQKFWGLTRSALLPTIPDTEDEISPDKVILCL
GSPT1, sequence (Q16531 whole entry partner): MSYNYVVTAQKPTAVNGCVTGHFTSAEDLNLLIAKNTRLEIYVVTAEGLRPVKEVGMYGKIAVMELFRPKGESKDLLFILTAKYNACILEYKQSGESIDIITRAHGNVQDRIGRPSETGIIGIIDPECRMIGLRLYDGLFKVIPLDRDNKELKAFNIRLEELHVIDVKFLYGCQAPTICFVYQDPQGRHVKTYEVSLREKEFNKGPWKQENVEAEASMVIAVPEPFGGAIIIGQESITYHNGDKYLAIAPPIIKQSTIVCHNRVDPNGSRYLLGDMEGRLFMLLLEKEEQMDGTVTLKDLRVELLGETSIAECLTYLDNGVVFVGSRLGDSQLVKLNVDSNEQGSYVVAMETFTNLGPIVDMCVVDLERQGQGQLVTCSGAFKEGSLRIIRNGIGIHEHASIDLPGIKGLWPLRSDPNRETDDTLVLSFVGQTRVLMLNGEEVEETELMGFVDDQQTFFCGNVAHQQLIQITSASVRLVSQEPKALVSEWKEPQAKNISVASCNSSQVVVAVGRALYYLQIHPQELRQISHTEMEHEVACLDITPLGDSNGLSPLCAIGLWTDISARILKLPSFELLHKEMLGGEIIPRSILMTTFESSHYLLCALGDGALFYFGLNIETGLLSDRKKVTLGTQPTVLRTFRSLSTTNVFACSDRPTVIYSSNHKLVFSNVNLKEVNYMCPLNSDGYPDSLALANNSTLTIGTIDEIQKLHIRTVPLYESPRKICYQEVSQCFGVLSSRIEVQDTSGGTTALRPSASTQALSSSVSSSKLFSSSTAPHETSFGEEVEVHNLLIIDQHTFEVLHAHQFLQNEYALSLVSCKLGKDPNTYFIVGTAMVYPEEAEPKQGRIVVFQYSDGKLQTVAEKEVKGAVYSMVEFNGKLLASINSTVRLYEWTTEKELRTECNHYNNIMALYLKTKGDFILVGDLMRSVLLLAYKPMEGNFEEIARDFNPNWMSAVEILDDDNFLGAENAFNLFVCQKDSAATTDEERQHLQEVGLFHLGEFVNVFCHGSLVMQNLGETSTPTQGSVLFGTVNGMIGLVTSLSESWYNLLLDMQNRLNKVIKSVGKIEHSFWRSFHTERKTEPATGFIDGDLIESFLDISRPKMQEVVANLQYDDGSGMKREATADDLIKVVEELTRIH

DC50 (GSPT1; [3]) | Compound | DC50 (GSPT1; [1]) | pIC50 (NCI-H1155 cells; [2]) | pIC50 (NCI-H1155 cells; NCI-H1155, 72 h)
– | O=C1CCC(N2Cc3cc(C(=O)N4Cc5cc(F)cc(F)c5C4)ccc3C2=O)C(=O)N1 (stereo not drawn) [Example 103, 3-(5-(4,6-difluoroisoindoline-2-carbonyl)-1-oxoisoindolin-2-yl)piperidine-2,6-dione] | < 100 nM | > 8.00 | –
300 to 1000 nM | O=C1CCC(c2nc3ccc(C(=O)N4CCc5ccc(F)cc54)cc3o2)C(=O)N1 (stereo not drawn) [Example 107, 3-(6-(6-fluoroindoline-1-carbonyl)benzo[d]oxazol-2-yl)piperidine-2,6-dione] | – | 6.00 to 7.00 | –
– | O=C1CCC(N2Cc3cc(C(=O)N4Cc5ccc(F)c(F)c5C4)ccc3C2=O)C(=O)N1 (stereo not drawn) [Example 109, 3-(5-(4,5-difluoroisoindoline-2-carbonyl)-1-oxoisoindolin-2-yl)piperidine-2,6-dione] | < 100 nM | 7.00 to 8.00 | –
– | O=C1CCC(N2Cc3cc(C(=O)N4Cc5cccc(Cl)c5C4)ccc3C2=O)C(=O)N1 (stereo not drawn) [Example 112, 3-(5-(4-chloroisoindoline-2-carbonyl)-1-oxoisoindolin-2-yl)piperidine-2,6-dione] | < 100 nM | > 8.00 | –
– | Cc1cccc2c1CN(C(=O)c1ccc3c(c1)CN(C1CCC(=O)NC1=O)C3=O)C2 (stereo not drawn) [Example 130, 3-(5-(4-methylisoindoline-2-carbonyl)-1-oxoisoindolin-2-yl)piperidine-2,6-dione] | < 100 nM | 7.00 to 8.00 | –
– | C[C@@H]1CN(C(=O)c2ccc3c(c2)CN(C2CCC(=O)NC2=O)C3=O)c2cc(F)ccc21 (stereo partly drawn) [Example 133, 3-(5-((S)-6-fluoro-3-methylindoline-1-carbonyl)-1-oxoisoindolin-2-yl)piperidine-2,6-dione] | < 100 nM | > 8.00 | –
300 to 1000 nM | O=C1CCC(c2nc3ccc(C(=O)N4Cc5cccc(F)c5C4)cc3o2)C(=O)N1 (stereo not drawn) [Example 137, 3-(6-(4-fluoroisoindoline-2-carbonyl)benzo[d]oxazol-2-yl)piperidine-2,6-dione] | – | 6.00 to 7.00 | –
– | O=C1CCC(N2Cc3cc(C(=O)N4CC5(CC(C(F)(F)F)C5)C4)ccc3C2=O)C(=O)N1 (stereo not drawn) [Example 145, 3-(1-oxo-5-(6-(trifluoromethyl)-2-azaspiro[3.3]heptane-2-carbonyl)isoindolin-2-yl)piperidine-2,6-dione] | > 1000 nM | 7.00 to 8.00 | –
– | O=C1CCC(N2Cc3cc(C(=O)N4Cc5c(F)ccc(F)c5C4)ccc3C2=O)C(=O)N1 (stereo not drawn) [Example 147, 3-(5-(4,7-difluoroisoindoline-2-carbonyl)-1-oxoisoindolin-2-yl)piperidine-2,6-dione] | < 100 nM | 7.00 to 8.00 | –
100 to 300 nM | O=C1CCC(c2nc3ccc(C(=O)N4Cc5cccc(Cl)c5C4)cc3o2)C(=O)N1 (stereo not drawn) [Example 158, 3-(6-(4-chloroisoindoline-2-carbonyl)benzo[d]oxazol-2-yl)piperidine-2,6-dione] | – | 7.00 to 8.00 | –
100 to 300 nM | Cc1cccc2c1CN(C(=O)c1ccc3nc(C4CCC(=O)NC4=O)oc3c1)C2 (stereo not drawn) [Example 161, 3-(6-(4-methylisoindoline-2-carbonyl)benzo[d]oxazol-2-yl)piperidine-2,6-dione] | – | 7.00 to 8.00 | –
– | O=C1CCC(N2Cc3cc(C(=O)N4CC5(C=C(c6ccc(F)cc6)C5)C4)ccc3C2=O)C(=O)N1 (stereo not drawn) [Example 169, 3-(5-(6-(4-fluorophenyl)-2-azaspiro[3.3]hept-5-ene-2-carbonyl)-1-oxoisoindolin-2-yl)piperidine-2,6-dione] | > 1000 nM | 7.00 to 8.00 | –
300 to 1000 nM | O=C1CCC(c2nc3ccc(C(=O)N4Cc5cccc(C(F)(F)F)c5C4)cc3o2)C(=O)N1 (stereo not drawn) [Example 174, 3-(6-(4-(trifluoromethyl)isoindoline-2-carbonyl)benzo[d]oxazol-2-yl)piperidine-2,6-dione] | – | 6.00 to 7.00 | –
300 to 1000 nM | O=C1CCC(c2nc3ccc(C(=O)N4Cc5cc(F)cc(F)c5C4)cc3o2)C(=O)N1 (stereo not drawn) [Example 176, 3-(6-(4,6-difluoroisoindoline-2-carbonyl)benzo[d]oxazol-2-yl)piperidine-2,6-dione] | – | 6.00 to 7.00 | –
300 to 1000 nM | O=C1CCC(c2nc3ccc(C(=O)N4Cc5cc(F)cc(Cl)c5C4)cc3o2)C(=O)N1 (stereo not drawn) [Example 178, 3-(6-(4-chloro-6-fluoroisoindoline-2-carbonyl)benzo[d]oxazol-2-yl)piperidine-2,6-dione] | – | 7.00 to 8.00 | –
– | O=C1CCC(N2Cc3cc(C(=O)N4Cc5cccc(F)c5C45CC5)ccc3C2=O)C(=O)N1 (stereo not drawn) [Example 182, 3-(5-(7′-fluorospiro[cyclopropane-1,1′-isoindoline]-2′-carbonyl)-1-oxoisoindolin-2-yl)piperidine-2,6-dione] | < 100 nM | > 8.00 | –

DC50 (GSPT1; [3]) | Compound | DC50 (GSPT1; [1]) | pIC50 (NCI-H1155 cells; [2]) | pIC50 (NCI-H1155 cells; NCI-H1155, 72 h)
100 to 300 nM | O=C1CCC(N2Cc3cc(C(=O)N4CC5(CCC(OC(F)(F)F)CC5)C4)ccc3C2=O)C(=O)N1 (stereo not drawn) [Example 184, 3-(1-oxo-5-(7-(trifluoromethoxy)-2-azaspiro[3.5]nonane-2-carbonyl)isoindolin-2-yl)piperidine-2,6-dione] | – | 7.00 to 8.00 | –
– | O=C1CCC(N2Cc3cc(C(=O)N4CCC5(C4)CC(F)(F)C5)ccc3C2=O)C(=O)N1 (stereo not drawn) [Example 189, 3-(5-(2,2-difluoro-6-azaspiro[3.4]octane-6-carbonyl)-1-oxoisoindolin-2-yl)piperidine-2,6-dione] | > 1000 nM | 6.00 to 7.00 | –
< 100 nM | O=C1CCC(N2Cc3cc(C(=O)N4CC5(CC(c6ccccc6F)C5)C4)ccc3C2=O)C(=O)N1 (stereo not drawn) [Example 196, 3-(5-(6-(2-fluorophenyl)-2-azaspiro[3.3]heptane-2-carbonyl)-1-oxoisoindolin-2-yl)piperidine-2,6-dione] | – | 7.00 to 8.00 | –
> 1000 nM | O=C1CCC(c2nc3ccc(C(=O)N4Cc5ccc(F)c(Cl)c5C4)cc3o2)C(=O)N1 (stereo not drawn) [Example 197, 3-(6-(4-chloro-5-fluoroisoindoline-2-carbonyl)benzo[d]oxazol-2-yl)piperidine-2,6-dione] | – | 6.00 to 7.00 | –
> 1000 nM | O=C1CCC(c2nc3ccc(C(=O)N4CC5(CCC(F)(F)C5)C4)cc3o2)C(=O)N1 (stereo not drawn) [Example 198, 3-(6-(6,6-difluoro-2-azaspiro[3.4]octane-2-carbonyl)benzo[d]oxazol-2-yl)piperidine-2,6-dione] | – | < 6.00 | –
> 1000 nM | Cc1cc(F)c2c(c1)CN(C(=O)c1ccc3nc(C4CCC(=O)NC4=O)oc3c1)C2 (stereo not drawn) [Example 199, 3-(6-(4-fluoro-6-methylisoindoline-2-carbonyl)benzo[d]oxazol-2-yl)piperidine-2,6-dione] | – | 6.00 to 7.00 | –
> 1000 nM | N#Cc1cc(F)c2c(c1)CN(C(=O)c1ccc3nc(C4CCC(=O)NC4=O)oc3c1)C2 (stereo not drawn) [Example 200, 2-(2-(2,6-dioxopiperidin-3-yl)benzo[d]oxazole-6-carbonyl)-7-fluoroisoindoline-5-carbonitrile] | – | 6.00 to 7.00 | –
– | O=C1CCC(N2Cc3cc(C(=O)N4CCC5(CCC(F)(F)C5)C4)ccc3C2=O)C(=O)N1 (stereo not drawn) [Example 201, 3-(5-(7,7-difluoro-2-azaspiro[4.4]nonane-2-carbonyl)-1-oxoisoindolin-2-yl)piperidine-2,6-dione] | > 1000 nM | 6.00 to 7.00 | –
– | O=C1CCC(N2Cc3cc(C(=O)N4CC(F)(c5ccccc5F)C4)ccc3C2=O)C(=O)N1 (stereo not drawn) [Example 202, 3-(5-(3-fluoro-3-(2-fluorophenyl)azetidine-1-carbonyl)-1-oxoisoindolin-2-yl)piperidine-2,6-dione] | 100 to 300 nM | 7.00 to 8.00 | –
– | O=C1CCC(N2Cc3cc(C(=O)N4CC5(C4)CC(F)(c4cccc(F)c4)C5)ccc3C2=O)C(=O)N1 (stereo not drawn) [Example 203, 3-(5-(6-fluoro-6-(3-fluorophenyl)-2-azaspiro[3.3]heptane-2-carbonyl)-1-oxoisoindolin-2-yl)piperidine-2,6-dione] | > 1000 nM | – | 6.00 to 7.00
– | O=C1CCC(N2Cc3cc(C(=O)N4CC5(C4)CC(F)(c4ccccc4F)C5)ccc3C2=O)C(=O)N1 (stereo not drawn) [Example 204, 3-(5-(6-fluoro-6-(2-fluorophenyl)-2-azaspiro[3.3]heptane-2-carbonyl)-1-oxoisoindolin-2-yl)piperidine-2,6-dione] | 100 to 300 nM | 6.00 to 7.00 | –
– | O=C1CCC(N2Cc3cc(C(=O)NC4CC5(C=C(c6ccc(C(F)(F)F)cc6)C5)C4)ccc3C2=O)C(=O)N1 (stereo not drawn) [Example 256, 2-(2,6-dioxopiperidin-3-yl)-1-oxo-N-(6-(4-(trifluoromethyl)phenyl)spiro[3.3]hept-5-en-2-yl)isoindoline-5-carboxamide] | – | 6.00 to 7.00 | –
– | O=C1CCC(c2nc3ccc(C(=O)N4CC5(CCC(C(F)(F)F)CC5)C4)cc3o2)C(=O)N1 (stereo not drawn) [Example 259, 3-(6-(7-(trifluoromethyl)-2-azaspiro[3.5]nonane-2-carbonyl)benzo[d]oxazol-2-yl)piperidine-2,6-dione] | – | < 6.00 | –
– | O=C1CCC(c2nc3cc(COC(=O)NC4CC5(CCC(F)(F)CC5)C4)ccc3o2)C(=O)N1 (stereo not drawn) [Example 260, (2-(2,6-dioxopiperidin-3-yl)benzo[d]oxazol-5-yl)methyl (7,7-difluorospiro[3.5]nonan-2-yl)carbamate] | – | 6.00 to 7.00 | –
– | O=C1CCC(c2nc3cc(COC(=O)N4CC5(C4)CC(F)(F)C5)ccc3o2)C(=O)N1 (stereo not drawn) [Example 262, (2-(2,6-dioxopiperidin-3-yl)benzo[d]oxazol-5-yl)methyl 6,6-difluoro-2-azaspiro[3.3]heptane-2-carboxylate] | – | < 6.00 | –

Compound | DC50 (GSPT1; [3]) | DC50 (GSPT1; [1]) | pIC50 (NCI-H1155 cells; [2]) | pIC50 (NCI-H1155 cells; NCI-H1155, 72 h)
O=C1CCC(c2nc3cc(COC(=O)Nc4cc(OC(F)(F)F)ccc4F)ccc3o2)C(=O)N1 (stereo not drawn) [Example 164, (2-(2,6-dioxopiperidin-3-yl)benzo[d]oxazol-5-yl)methyl (2-fluoro-5-(trifluoromethoxy)phenyl)carbamate] | 100 to 300 nM | – | 7.00 to 8.00 | –
